Experimental data as given in ChEMBL document CHEMBL4184331 (J Med Chem, 2018).

Tests used:
RAW264.7 = assay: cells; settings: Mus musculus
Description: Antiinflammatory activity in mouse RAW264.7 cells assessed as inhibition of LPS-induced nitric oxide release preincubated for 15 mins followed by LPS challenge measured after 18 hrs by Griess assay

Glucocorticoid receptor [1] = target: T1, Glucocorticoid receptor (Homo sapiens, UniProt P04150)
T1 sequence (P04150 whole entry): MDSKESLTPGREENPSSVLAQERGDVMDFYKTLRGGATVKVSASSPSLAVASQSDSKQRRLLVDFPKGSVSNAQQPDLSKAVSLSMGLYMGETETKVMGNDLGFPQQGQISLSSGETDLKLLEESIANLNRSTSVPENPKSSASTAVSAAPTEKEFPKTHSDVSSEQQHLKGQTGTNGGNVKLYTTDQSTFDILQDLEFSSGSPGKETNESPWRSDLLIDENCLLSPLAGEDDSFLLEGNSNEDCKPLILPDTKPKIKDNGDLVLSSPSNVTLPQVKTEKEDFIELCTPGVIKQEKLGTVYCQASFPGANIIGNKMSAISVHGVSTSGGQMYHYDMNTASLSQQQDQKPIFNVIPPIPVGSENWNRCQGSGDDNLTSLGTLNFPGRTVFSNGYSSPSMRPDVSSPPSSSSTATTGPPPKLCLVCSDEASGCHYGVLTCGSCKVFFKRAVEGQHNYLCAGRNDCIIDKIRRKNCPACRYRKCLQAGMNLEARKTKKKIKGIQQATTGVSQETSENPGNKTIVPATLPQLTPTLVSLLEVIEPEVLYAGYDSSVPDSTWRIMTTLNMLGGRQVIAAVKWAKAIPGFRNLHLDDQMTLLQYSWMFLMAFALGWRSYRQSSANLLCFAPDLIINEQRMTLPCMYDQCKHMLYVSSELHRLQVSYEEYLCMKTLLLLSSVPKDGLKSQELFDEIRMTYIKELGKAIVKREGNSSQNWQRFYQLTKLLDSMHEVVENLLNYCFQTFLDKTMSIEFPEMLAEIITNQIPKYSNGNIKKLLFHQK
Description: Induction of nuclear translocation of human recombinant ProLabel-tagged glucocorticoid receptor expressed in CHO-K1 cells after 3 hrs by luminescence method

Glucocorticoid receptor [2] = target: T1, Glucocorticoid receptor; assay: biochemical
Description: Displacement of [3H]dexamethasone from human recombinant glucocorticoid receptor expressed in insect cells after 24 hrs by scintillation proximity assay

[3] = target: T2, Mineralocorticoid receptor (Homo sapiens, UniProt P08235)
T2 sequence (P08235 whole entry): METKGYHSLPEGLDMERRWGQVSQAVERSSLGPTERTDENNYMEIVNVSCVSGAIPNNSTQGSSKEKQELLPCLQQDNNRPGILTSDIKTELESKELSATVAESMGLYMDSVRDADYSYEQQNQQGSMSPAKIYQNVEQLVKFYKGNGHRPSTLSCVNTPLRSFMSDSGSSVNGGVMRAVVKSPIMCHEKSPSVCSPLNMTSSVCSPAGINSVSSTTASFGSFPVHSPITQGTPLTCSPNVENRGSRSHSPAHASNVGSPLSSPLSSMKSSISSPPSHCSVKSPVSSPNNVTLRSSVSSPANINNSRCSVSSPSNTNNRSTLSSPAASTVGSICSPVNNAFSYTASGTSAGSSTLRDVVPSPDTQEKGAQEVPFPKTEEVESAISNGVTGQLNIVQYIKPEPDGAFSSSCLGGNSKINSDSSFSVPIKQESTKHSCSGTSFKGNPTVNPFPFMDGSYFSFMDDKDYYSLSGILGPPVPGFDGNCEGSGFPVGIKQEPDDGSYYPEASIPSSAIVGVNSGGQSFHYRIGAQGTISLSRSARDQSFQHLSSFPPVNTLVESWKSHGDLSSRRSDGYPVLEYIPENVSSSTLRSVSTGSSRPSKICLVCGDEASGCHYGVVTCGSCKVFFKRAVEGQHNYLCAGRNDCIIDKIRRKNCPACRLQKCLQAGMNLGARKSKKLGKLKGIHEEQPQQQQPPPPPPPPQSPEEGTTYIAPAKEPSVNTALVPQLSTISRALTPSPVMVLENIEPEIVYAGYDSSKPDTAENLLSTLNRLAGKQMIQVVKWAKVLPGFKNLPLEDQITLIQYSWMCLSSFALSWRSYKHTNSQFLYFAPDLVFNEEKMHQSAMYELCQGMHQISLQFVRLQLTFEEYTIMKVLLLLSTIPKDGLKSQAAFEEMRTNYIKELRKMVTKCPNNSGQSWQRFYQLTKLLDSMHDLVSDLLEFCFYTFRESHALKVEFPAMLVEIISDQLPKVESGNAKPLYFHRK
Description: Induction of nuclear translocation of human recombinant ProLabel-tagged mineralocorticoid receptor expressed in CHO-K1 cells after 3 hrs by luminescence method

[4] = AUClast in Sprague-Dawley rat plasma at 1 umol/kg, it by HPLC-MS/MS method; assay type: ADME, cell-free; settings: inhaled or intranasal
[5] = Cmax in Sprague-Dawley rat plasma at 1 umol/kg, it by HPLC-MS/MS method; assay type: ADME, cell-free; design: dose 1 umol/kg; settings: inhaled or intranasal
[6] = MRTlast in Sprague-Dawley rat plasma at 1 umol/kg, it by HPLC-MS/MS method; assay type: ADME, cell-free; settings: inhaled or intranasal
[7] = MRTlast in Sprague-Dawley rat lung at 1 umol/kg, it by HPLC-MS/MS method; assay type: ADME, tissue-based; settings: inhaled or intranasal
[8] = AUClast in Sprague-Dawley rat lung at 1 umol/kg, it by HPLC-MS/MS method; assay type: ADME, tissue-based; settings: in vivo, inhaled_or_intranasal
[9] = Cmax in Sprague-Dawley rat lung at 1 umol/kg, it by HPLC-MS/MS method; assay type: ADME, tissue-based; design: dose 1 umol/kg; settings: in vivo, inhaled_or_intranasal

Description for physchem: Dissociation constant, pKa of the compound

Structure (SMILES)	IC50 (RAW264.7) [nM]	pKa (physchem)	EC50 (Glucocorticoid receptor [1]) [nM]	Ki (Glucocorticoid receptor [2]) [nM]	also measured
Cc1ccc(CN2C[C@@H]3C[C@H]4[C@@H]5C[C@H](F)C6=CC(=O)C=C[C@]6(C)[C@@]5(F)[C@@H](O)C[C@]4(C)[C@]3(C(=O)CO)C2)cc1	0.16	7.11	8.4	0.52	
C[C@]12C=CC(=O)C=C1[C@@H](F)C[C@H]1[C@@H]3C[C@H]4CN(c5cccc(Cl)c5)C[C@@]4(C(=O)CO)[C@@]3(C)C[C@H](O)[C@@]12F	0.4	4.06	5.8	0.52	
Cc1cccc(CN2C[C@@H]3C[C@H]4[C@@H]5C[C@H](F)C6=CC(=O)C=C[C@]6(C)[C@@]5(F)[C@@H](O)C[C@]4(C)[C@]3(C(=O)CO)C2)c1	0.3	7.27	11.3	0.52	
C[C@]12C=CC(=O)C=C1[C@@H](F)C[C@H]1[C@@H]3C[C@H]4CN(Cc5ccc(CSc6ccc(O)cc6)cc5)C[C@@]4(C(=O)CO)[C@@]3(C)C[C@H](O)[C@@]12F	0.44	6.95	2.1	0.62	EC50 [3]: 0.0016 µM
C[C@]12C=CC(=O)C=C1[C@@H](F)C[C@H]1[C@@H]3C[C@H]4CN(Cc5ccccc5)C[C@@]4(C(=O)NCc4ccccc4)[C@@]3(C)C[C@H](O)[C@@]12F		7.05	50	9.8	
C[C@]12C=CC(=O)C=C1[C@@H](F)C[C@H]1[C@@H]3C[C@H]4CN(C(=O)OCc5ccccc5)C[C@@]4(C(=O)CO)[C@@]3(C)C[C@H](O)[C@@]12F			44.1	0.66	
CN1C[C@@H]2C[C@H]3[C@@H]4C[C@H](F)C5=CC(=O)C=C[C@]5(C)[C@@]4(F)[C@@H](O)C[C@]3(C)[C@]2(C(=O)CO)C1		7.91	54.9		
C[C@]12C=CC(=O)C=C1[C@@H](F)C[C@H]1[C@@H]3C[C@H]4CN(Cc5cccc(Cl)c5)C[C@@]4(C(=O)SCF)[C@@]3(C)C[C@H](O)[C@@]12F			45		EC50 [3]: > 3 µM
C[C@]12C=CC(=O)C=C1[C@@H](F)C[C@H]1[C@@H]3C[C@H]4CN(Cc5cccnc5)C[C@@]4(C(=O)CO)[C@@]3(C)C[C@H](O)[C@@]12F		4.11	63.9		
C[C@]12C=CC(=O)C=C1[C@@H](F)C[C@H]1[C@@H]3C[C@H]4CN(c5ccc(Cl)cc5)C[C@@]4(C(=O)CO)[C@@]3(C)C[C@H](O)[C@@]12F	0.66	4.42	8.5	0.67	
CN(C)C(=O)[C@@]12CN(Cc3ccccc3)C[C@@H]1C[C@H]1[C@@H]3C[C@H](F)C4=CC(=O)C=C[C@]4(C)[C@@]3(F)[C@@H](O)C[C@@]12C		7.3	40.3	1.1	EC50 [3]: > 3 µM
CC(C)CCN1C[C@@H]2C[C@H]3[C@@H]4C[C@H](F)C5=CC(=O)C=C[C@]5(C)[C@@]4(F)[C@@H](O)C[C@]3(C)[C@]2(C(=O)CO)C1	0.22	7.98	3.4	1.9	
C[C@]12C=CC(=O)C=C1[C@@H](F)C[C@H]1[C@@H]3C[C@H]4CN(S(=O)(=O)c5cccs5)C[C@@]4(C(=O)CO)[C@@]3(C)C[C@H](O)[C@@]12F	3.68		7.4	0.66	
C[C@]12C=CC(=O)C=C1[C@@H](F)C[C@H]1[C@@H]3C[C@H]4CN(Cc5ccccc5)C[C@@]4(C(=O)CF)[C@@]3(C)C[C@H](O)[C@@]12F		6.87	3.4	0.52	
C[C@]12C=CC(=O)C=C1[C@@H](F)C[C@H]1[C@@H]3C[C@H]4CN(CC5CC5)C[C@@]4(C(=O)CO)[C@@]3(C)C[C@H](O)[C@@]12F		7.83	15.2		
COC(=O)[C@@]12CN(Cc3ccccc3)C[C@@H]1C[C@H]1[C@@H]3C[C@H](F)C4=CC(=O)C=C[C@]4(C)[C@@]3(F)[C@@H](O)C[C@@]12C		7.12	5.7	0.71	
CC(C)CCN1C[C@@H]2C[C@H]3[C@@H]4C[C@H](F)C5=CC(=O)C=C[C@]5(C)[C@@]4(F)[C@@H](O)C[C@]3(C)[C@]2(C(=O)SCF)C1			57	4.8	EC50 [3]: > 3 µM
C[C@]12C=CC(=O)C=C1[C@@H](F)C[C@H]1[C@@H]3C[C@H]4CN(Cc5ccc(Cl)cc5)C[C@@]4(C(=O)CO)[C@@]3(C)C[C@H](O)[C@@]12F	0.25	6.72	1.3		
CC(=O)[C@@]12CN(Cc3cccc(Cl)c3)C[C@@H]1C[C@H]1[C@@H]3C[C@H](F)C4=CC(=O)C=C[C@]4(C)[C@@]3(F)[C@@H](O)C[C@@]12C	1.4	6.9	7.7	0.57	
C[C@]12C=CC(=O)C=C1[C@@H](F)C[C@H]1[C@@H]3C[C@H]4CN(Cc5ccc6ccccc6n5)C[C@@]4(C(=O)CO)[C@@]3(C)C[C@H](O)[C@@]12F	11.9	3.42	31.2	0.71	
C[C@]12C=CC(=O)C=C1[C@@H](F)C[C@H]1[C@@H]3C[C@H]4CN(Cc5cccc(Cl)c5)C[C@@]4(C(=O)OCF)[C@@]3(C)C[C@H](O)[C@@]12F		6.58	20.8	0.57	
C[C@]12C=CC(=O)C=C1[C@@H](F)C[C@H]1[C@@H]3C[C@H]4CN(C(=O)c5ccccc5)C[C@@]4(C(=O)CO)[C@@]3(C)C[C@H](O)[C@@]12F			248		
C[C@]12C=CC(=O)C=C1[C@@H](F)C[C@H]1[C@@H]3C[C@H]4CN(Cc5ccccc5)C[C@@]4(C(=O)CO)[C@@]3(C)C[C@H](O)[C@@]12F	0.15	6.96	1.7	0.66	
C[C@]12C=CC(=O)C=C1[C@@H](F)C[C@H]1[C@@H]3C[C@H]4CN(Cc5cccc(Cl)c5)C[C@@]4(C(=O)CO)[C@@]3(C)C[C@H](O)[C@@]12F.Cl					AUC(0-t) [4]: 0.12 µM·h; Cmax [5]: 90 nM; MRT last [6]: 1.1 h; MRT last [7]: 6.4 h; AUClast [8]: 9 nmol·h/g; Cmax [9]: 9.03 nmol/g
C[C@]12C=CC(=O)C=C1[C@@H](F)C[C@H]1[C@@H]3C[C@H]4CN(c5ccccc5)C[C@@]4(C(=O)CO)[C@@]3(C)C[C@H](O)[C@@]12F	0.34	8.82	1.3	0.39	
C[C@]12C=CC(=O)C=C1[C@@H](F)C[C@H]1[C@@H]3C[C@H]4CN(c5ccccc5)C[C@@]4(C(=O)CF)[C@@]3(C)C[C@H](O)[C@@]12F	1.38	8.74	3.2	0.52	
